Experimental data as given in publication PMC12591484 (PLOS One, 2025).

Columns and labels:
Experiment in all cases: Effects of cysteine modification with pCMBS on Low/High GABA response ratio
Type in all cases: cell-based
[1] = molecular target: T1, α1S270Cβ3γ2L GABAA receptors (Homo sapiens, UniProt P14867+P18507+P28472, S297C)
T1 construct: expressed in transfected cells; host or cells: Xenopus oocytes injected with capped mRNA, 1α:1β:5γ
Method: (§1) The pCMBS exposure was calculated as concentration × time (e.g. 100 μM × 30 s = 3000 µM × s). […] The pCMBS exposures were varied to generate modification ratio vs. pCMBS exposure curves. Each oocyte was studied at a single pCMBS exposure condition. For each cysteine mutant, 5 oocytes were studied at 4 to 7 pCMBS exposure conditions. The modification ratio vs. pCMBS exposure curves were fit with mono-phasic or bi-phasic logistic equations similar to Eq 1, using non-linear least squares.

[2] = molecular target: T2, α1β3γ2I242C GABAA receptors (Homo sapiens, UniProt P14867+P18507+P28472, I281C); conditions: post- to pre-modification Low/High GABA response ratio
T2 construct: expressed in transfected cells; host or cells: Xenopus oocytes injected with capped mRNAs mixed 1α:1β:5γ
Method: as §1

[3] = molecular target: T3, α1A291Cβ3γ2L GABAA receptors (Homo sapiens, UniProt P14867+P18507+P28472, A318C)
T3 construct: expressed in transfected cells; host or cells: Xenopus oocytes injected with capped mRNA, 1α:1β:5γ
Method: as §1

[4] = molecular target: T4, α1β3M286Cγ2L GABAA receptors (Homo sapiens, UniProt P14867+P18507+P28472, M311C); conditions: post- to pre-modification Low/High GABA response ratio
T4 construct: expressed in transfected cells; host or cells: Xenopus oocytes injected with capped mRNA, 1α:1β:5γ
Method: as §1

[5] = molecular target: T5, α1M236Cβ3γ2L GABAA receptors (Homo sapiens, UniProt P14867+P18507+P28472, M263C); conditions: post- to pre-modification Low/High GABA response ratio
T5 construct: expressed in transfected cells; host or cells: Xenopus oocytes injected with capped mRNA, 1α:1β:5γ
Method: as §1

[6] = molecular target: T6, α1β3L231Cγ2L GABAA receptors (Homo sapiens, UniProt P14867+P18507+P28472, L256C); conditions: post- to pre-modification Low/High GABA response ratio
T6 construct: expressed in transfected cells; host or cells: Xenopus oocytes injected with capped mRNA, 1α:1β:5γ
Method: as §1

[7] = molecular target: T7, α1β3γ2S301C GABAA receptors (Homo sapiens, UniProt P14867+P18507+P28472, S340C); conditions: post- to pre-modification Low/High GABA response ratio
T7 construct: expressed in transfected cells; host or cells: Xenopus oocytes injected with capped mRNAs mixed 1α:1β:5γ
T7 sequence (P14867 28-456): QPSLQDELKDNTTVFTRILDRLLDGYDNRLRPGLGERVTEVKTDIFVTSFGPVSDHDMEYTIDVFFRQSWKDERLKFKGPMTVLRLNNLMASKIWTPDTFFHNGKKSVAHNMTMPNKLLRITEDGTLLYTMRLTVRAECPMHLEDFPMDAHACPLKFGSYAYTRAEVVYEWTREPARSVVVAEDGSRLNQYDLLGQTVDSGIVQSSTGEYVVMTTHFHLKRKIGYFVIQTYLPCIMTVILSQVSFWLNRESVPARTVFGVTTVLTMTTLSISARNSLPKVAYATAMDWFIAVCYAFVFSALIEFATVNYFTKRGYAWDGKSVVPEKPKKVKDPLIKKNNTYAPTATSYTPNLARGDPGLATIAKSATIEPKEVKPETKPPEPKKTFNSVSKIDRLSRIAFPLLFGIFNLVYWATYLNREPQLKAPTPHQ
T7 sequence (P28472 26-473): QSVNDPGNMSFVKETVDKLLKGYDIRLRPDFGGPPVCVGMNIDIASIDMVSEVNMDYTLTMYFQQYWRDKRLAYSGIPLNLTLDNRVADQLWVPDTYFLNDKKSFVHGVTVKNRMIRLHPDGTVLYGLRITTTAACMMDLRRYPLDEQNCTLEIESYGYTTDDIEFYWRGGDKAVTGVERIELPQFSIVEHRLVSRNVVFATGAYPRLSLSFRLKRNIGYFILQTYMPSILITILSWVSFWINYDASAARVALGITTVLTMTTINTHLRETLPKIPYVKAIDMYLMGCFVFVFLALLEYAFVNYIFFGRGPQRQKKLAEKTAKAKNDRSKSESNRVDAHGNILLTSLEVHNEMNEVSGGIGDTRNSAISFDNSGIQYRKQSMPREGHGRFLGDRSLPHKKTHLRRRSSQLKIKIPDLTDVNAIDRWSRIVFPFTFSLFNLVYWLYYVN
T7 sequence (P18507 40-475 S340C): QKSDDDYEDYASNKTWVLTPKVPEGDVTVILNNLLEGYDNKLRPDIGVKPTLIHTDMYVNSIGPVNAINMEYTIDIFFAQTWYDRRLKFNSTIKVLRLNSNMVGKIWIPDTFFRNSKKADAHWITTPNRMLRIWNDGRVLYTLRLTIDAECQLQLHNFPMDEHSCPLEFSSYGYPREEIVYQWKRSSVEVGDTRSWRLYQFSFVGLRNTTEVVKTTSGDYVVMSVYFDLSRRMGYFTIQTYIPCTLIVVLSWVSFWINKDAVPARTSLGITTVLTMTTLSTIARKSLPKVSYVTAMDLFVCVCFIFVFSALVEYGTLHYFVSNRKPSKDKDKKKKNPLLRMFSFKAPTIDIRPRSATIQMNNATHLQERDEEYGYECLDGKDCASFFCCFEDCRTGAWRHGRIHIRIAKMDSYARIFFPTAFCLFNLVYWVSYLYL
Method: as §1

[8] = molecular target: T8, α1β3γ2L246C GABAA receptors (Homo sapiens, UniProt P14867+P18507+P28472, L285C); conditions: post- to pre-modification Low/High GABA response ratio
T8 construct: expressed in transfected cells; host or cells: Xenopus oocytes injected with capped mRNAs mixed 1α:1β:5γ
Method: as §1

T1 sequence (P14867 28-456 S297C, one chain of several): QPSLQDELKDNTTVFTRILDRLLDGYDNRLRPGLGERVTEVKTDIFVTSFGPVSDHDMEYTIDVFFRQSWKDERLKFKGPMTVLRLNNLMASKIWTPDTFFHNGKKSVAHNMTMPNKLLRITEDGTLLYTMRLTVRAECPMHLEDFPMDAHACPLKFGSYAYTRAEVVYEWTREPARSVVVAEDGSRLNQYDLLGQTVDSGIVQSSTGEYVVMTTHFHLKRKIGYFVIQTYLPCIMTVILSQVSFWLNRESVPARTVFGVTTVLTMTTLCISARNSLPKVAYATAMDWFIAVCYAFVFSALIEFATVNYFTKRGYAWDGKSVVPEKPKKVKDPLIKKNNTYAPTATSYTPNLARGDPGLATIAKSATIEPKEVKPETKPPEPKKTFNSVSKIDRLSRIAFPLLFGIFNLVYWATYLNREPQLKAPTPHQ
T1 sequence (P18507 40-475, one chain of several): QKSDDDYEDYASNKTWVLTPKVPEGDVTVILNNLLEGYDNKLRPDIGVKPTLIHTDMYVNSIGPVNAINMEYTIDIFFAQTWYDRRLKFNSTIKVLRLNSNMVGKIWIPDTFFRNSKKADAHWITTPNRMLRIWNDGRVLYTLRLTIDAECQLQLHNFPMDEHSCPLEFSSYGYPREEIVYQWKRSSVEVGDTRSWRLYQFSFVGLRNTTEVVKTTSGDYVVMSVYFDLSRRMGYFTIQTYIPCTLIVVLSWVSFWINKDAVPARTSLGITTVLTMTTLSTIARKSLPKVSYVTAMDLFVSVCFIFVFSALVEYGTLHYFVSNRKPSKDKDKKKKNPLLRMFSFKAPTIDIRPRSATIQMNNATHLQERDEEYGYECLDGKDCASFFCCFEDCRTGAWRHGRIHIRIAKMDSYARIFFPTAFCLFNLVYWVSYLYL
T3 sequence (P14867 28-456 A318C, one chain of several): as the sequence (P14867 28-456 S297C, one chain of several) above, with C270S, A291C counted along it
T3 sequence (P18507 40-475, one chain of several): as the sequence (P18507 40-475, one chain of several) above
T5 sequence (P14867 28-456 M263C, one chain of several): as the sequence (P14867 28-456 S297C, one chain of several) above, with M236C, C270S counted along it
T5 sequence (P18507 40-475, one chain of several): as the sequence (P18507 40-475, one chain of several) above
T4 sequence (P28472 26-473 M311C, one chain of several): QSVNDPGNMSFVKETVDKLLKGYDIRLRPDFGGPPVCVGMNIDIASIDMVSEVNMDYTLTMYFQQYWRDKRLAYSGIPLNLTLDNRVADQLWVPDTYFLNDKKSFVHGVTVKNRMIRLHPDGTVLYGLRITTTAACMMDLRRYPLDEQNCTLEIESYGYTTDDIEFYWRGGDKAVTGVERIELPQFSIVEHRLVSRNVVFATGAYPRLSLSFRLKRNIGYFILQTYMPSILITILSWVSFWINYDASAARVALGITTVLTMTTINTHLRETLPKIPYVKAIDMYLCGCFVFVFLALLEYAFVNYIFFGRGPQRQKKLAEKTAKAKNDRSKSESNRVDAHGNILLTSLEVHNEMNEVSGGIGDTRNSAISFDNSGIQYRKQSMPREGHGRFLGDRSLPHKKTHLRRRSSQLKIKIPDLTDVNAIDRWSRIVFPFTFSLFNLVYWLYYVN
T4 sequence (P18507 40-475, one chain of several): as the sequence (P18507 40-475, one chain of several) above
T8 sequence (P18507 40-475 L285C, one chain of several): as the sequence (P18507 40-475, one chain of several) above, with L246C counted along it
T6 sequence (P28472 26-473 L256C, one chain of several): as the sequence (P28472 26-473 M311C, one chain of several) above, with L231C, C286M counted along it
T6 sequence (P18507 40-475, one chain of several): as the sequence (P18507 40-475, one chain of several) above
T2 sequence (P18507 40-475 I281C, one chain of several): as the sequence (P18507 40-475, one chain of several) above, with I242C counted along it

**Q.** For `O=S(=O)([O-])c1cc[c]([Hg][Cl])cc1.[Na+]` [pCMBS, para-chloromercuribenzenesulfonic acid sodium salt], which “pCMBS exposure with maximum effect on modification ratio” value ([1]; α1S270C, biphasic effect of increasing pCMBS exposure) is on record?
**A.** Its value is 300 µM x s.

**Q.** And the “Maximal pCMBS Modification Ratio Mean ± SD” value ([1]; α1S270Cβ3γ2L, post- to pre-modification Low/High GABA response ratio, biphasic)?
**A.** The value was 11.8 ± 0.77.

**Q.** And the “Maximal pCMBS Modification Ratio Mean ± SD” value [2]?
**A.** The value was 17 ± 4.9.

**Q.** What about the “modification ratio, control modification, single oocyte example (Fig 2A)” value ([3]; 3 mM GABA + 10 µM pCMBS for 90 s) of the same compound?
**A.** Its value is 4.0.

**Q.** What about the “Maximal pCMBS Modification Ratio Mean ± SD” value ([3]; post- to pre-modification Low/High GABA response ratio) of the same compound?
**A.** The value was 4.7 ± 0.61.

**Q.** What about the “Maximal pCMBS Modification Ratio Mean ± SD” value [4] of the same compound?
**A.** Its value is 9 ± 3.1.

**Q.** And the “Maximal pCMBS Modification Ratio Mean ± SD” value [5]?
**A.** The value was 13 ± 1.4.

**Q.** And the “Maximal pCMBS Modification Ratio Mean ± SD” value [6]?
**A.** The value was 13 ± 1.3.

**Q.** And the “Maximal pCMBS Modification Ratio Mean ± SD” value [7]?
**A.** The value was 5.3 ± 0.23.

**Q.** And the “Maximal pCMBS Modification Ratio Mean ± SD” value [8]?
**A.** Its value is 5 ± 1.0.
